Measured values: PubChem BioAssay (NCI)
Values joined by “and” are separate entries in the source; they are usually repeats but may differ in a detail not shown here. Equal values may be shown once.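 Method: 48-hour compound exposure of cells in 96-well plates, five concentrations, linear interpolation of endpoints. The concentration for 50% growth inhibition is given as GI50. TGI is the concentration that stops growth completely.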

Legend:
Test in all cases: NCI tumour cell line growth inhibition, 48 h
A498 renal = test system: A498 renal
CAKI-1 renal = test system: CAKI-1 renal
KM12 colon = test system: KM12 colon
MCF7 breast = test system: MCF7 breast
OVCAR-3 ovarian = test system: OVCAR-3 ovarian
OVCAR-5 ovarian = test system: OVCAR-5 ovarian
PC-3 prostate = test system: PC-3 prostate
SF-268 CNS = test system: SF-268 CNS
SK-MEL-2 melanoma = test system: SK-MEL-2 melanoma
SW-620 colon = test system: SW-620 colon
UACC-62 melanoma = test system: UACC-62 melanoma
HOP-92 NSCLC = test system: HOP-92 NSCLC

SMILES	TGI (A498 renal)	TGI (CAKI-1 renal)	TGI (KM12 colon)	TGI (MCF7 breast)	TGI (OVCAR-3 ovarian)	TGI (OVCAR-5 ovarian)	TGI (PC-3 prostate)	TGI (SF-268 CNS)	TGI (SK-MEL-2 melanoma)	TGI (SW-620 colon)	TGI (UACC-62 melanoma)	TGI (HOP-92 NSCLC)	GI50 (KM12 colon)	GI50 (OVCAR-3 ovarian)	GI50 (SF-268 CNS)	GI50 (SW-620 colon)	GI50 (SK-MEL-2 melanoma)
O=c1oc2ccccc2n1CCN1CCCCC1	> 100 µM	> 100 µM	> 100 µM	> 100 µM	> 100 µM	> 100 µM	> 100 µM	> 100 µM	> 100 µM	> 100 µM	> 100 µM	–	–	–	–	–	–
CNC(=O)c1[nH]cnc1/N=N/N(C)N	> 100 µM	> 100 µM	> 100 µM	–	> 100 µM	> 100 µM	> 100 µM	> 100 µM	> 100 µM	> 100 µM	> 100 µM	–	–	–	–	–	–
COC(=O)/C=c1/c2ccccc2n2nc3ccccc3c12	93.3 µM	> 100 µM	> 100 µM	> 100 µM	> 100 µM	> 100 µM	> 100 µM	> 100 µM	> 100 µM	> 100 µM	> 100 µM	–	–	–	–	–	–
c1ccc(CSc2nc(N3CCOCC3)c3cn[nH]c3n2)cc1	26.1 µM	57.5 µM	38.5 µM	> 100 µM	> 100 µM	> 100 µM	38.2 µM	58.8 µM	34 µM	64.8 µM	30.3 µM	–	–	–	–	–	–
Cc1cccc(NC(=S)Nc2ccccc2Cl)n1	64.6 µM	96.4 µM	79.4 µM	> 100 µM	> 100 µM	> 100 µM	> 100 µM	62 µM	> 100 µM	> 100 µM	> 100 µM	–	–	–	–	–	–
O=c1[nH]nc(Cc2ccccc2)n1Nc1ccccc1	> 100 µM	> 100 µM	> 100 µM	> 100 µM	> 100 µM	> 100 µM	> 100 µM	> 100 µM	> 100 µM	> 100 µM	> 100 µM	–	–	–	–	–	–
COC(=O)c1c(C)cccc1CC1Cc2c(C)cccc2C1=O (stereo unspecified)	73.7 µM	> 100 µM	73.2 µM	–	> 100 µM	> 100 µM	> 100 µM	> 100 µM	37.9 µM	> 100 µM	89.9 µM	70.9 µM	–	–	–	–	–
CC(=O)OCC1=C(C)C(OC(=O)C(OC(C)=O)[C@@H](NC(=O)c2ccccc2)c2ccccc2)CCC1(C)C (stereo partly specified)	> 100 µM	> 100 µM	> 100 µM	> 100 µM	> 100 µM	> 100 µM	–	> 100 µM	–	> 100 µM	> 100 µM	–	–	–	–	–	–
O=C(CSC(=S)N1CCOCC1)Nc1nc2c(s1)CCCC2	> 100 µM	–	> 100 µM	–	> 100 µM	> 100 µM	–	> 100 µM	> 100 µM	–	–	96.2 µM	–	–	–	–	–
CN(C)Cc1cc(N=Nc2ccccc2)cc(CN(C)C)c1O	> 100 µM	> 100 µM	> 100 µM	–	> 100 µM	> 100 µM	> 100 µM	> 100 µM	> 100 µM	> 100 µM	> 100 µM	> 100 µM	–	–	–	–	–
CCN(CC)C(=S)SS(=O)(=O)c1ccc([N+](=O)[O-])cc1	> 100 µM	34.4 µM	24.5 µM	–	> 100 µM	> 100 µM	–	> 100 µM	> 100 µM	37.1 µM	> 100 µM	–	11.1 µM	35.4 µM	> 100 µM	17.9 µM	–
CN1CN(c2ccccc2)C2(CCN(CCc3csc4ccccc34)CC2)C1=O	–	30.1 µM	25.9 µM	33.9 µM	26.6 µM	25.3 µM	33.5 µM	> 100 µM	–	39.3 µM	38 µM	–	–	–	–	–	–
CC[C@H]1OC([C@H](O)C/C=C\C#C[Si](C)(C)C)C/C=C\C[C@H]1O[Si](C)(C)C(C)(C)C (stereo partly specified)	> 100 µM	> 100 µM	> 100 µM	> 100 µM	> 100 µM	> 100 µM	> 100 µM	> 100 µM	> 100 µM	> 100 µM	> 100 µM	–	–	–	–	–	–
CCC1C(c2cc(OC)c(OC)c(OC)c2)c2cc3c(cc2OC1N1CCOCC1)OCO3 (stereo unspecified)	–	–	–	15.5 µM	18.7 µM	15.6 µM	14.1 µM	41.5 µM	> 100 µM	10.3 µM	24.7 µM	41 µM	–	–	–	–	–
O=C(CC(C(=O)c1ccoc1)c1ccco1)c1ccco1 (stereo unspecified)	> 100 µM	> 100 µM	> 100 µM	> 100 µM	> 100 µM	> 100 µM	–	> 100 µM	–	> 100 µM	> 100 µM	> 100 µM	–	–	–	–	–
COc1cc2c(c(OC)c1OC)-c1ccc(SC)cc1[C@H](OC(=O)c1ccccc1)CC2	–	> 100 µM	> 100 µM	> 33.2 µM	> 100 µM	> 100 µM	–	> 100 µM	> 100 µM	> 100 µM	> 100 µM	> 100 µM	–	–	–	–	–
CC1(C)CC(=O)c2c(nc3ccc4ccccc4c3c2-c2ccc(NC(=O)CCC(=O)Nc3ccc(-c4c5c(nc6ccc7ccccc7c46)CC(C)(C)CC5=O)cc3)cc2)C1	–	> 100 µM	> 100 µM	> 100 µM	> 100 µM	> 100 µM	> 100 µM	> 100 µM	> 100 µM	> 100 µM	–	–	–	–	–	–	–

SMILES	TGI (A498 renal)	TGI (CAKI-1 renal)	TGI (KM12 colon)	TGI (MCF7 breast)	TGI (OVCAR-3 ovarian)	TGI (OVCAR-5 ovarian)	TGI (PC-3 prostate)	TGI (SF-268 CNS)	TGI (SK-MEL-2 melanoma)	TGI (SW-620 colon)	TGI (UACC-62 melanoma)	TGI (HOP-92 NSCLC)	GI50 (KM12 colon)	GI50 (OVCAR-3 ovarian)	GI50 (SF-268 CNS)	GI50 (SW-620 colon)	GI50 (SK-MEL-2 melanoma)
CCCCOC(=O)C(O)Cc1ccoc1 (stereo unspecified)	> 100 µM	–	> 100 µM	> 100 µM	> 100 µM	> 100 µM	> 100 µM	> 100 µM	> 100 µM	> 100 µM	> 100 µM	–	–	–	–	–	–
CC(C)=CCSC1CC2C(CC1(C)O)C2(C)C (stereo unspecified)	31.4 µM and 36.2 µM	28.3 µM and 25.5 µM	35.7 µM and 27.7 µM	–	31.2 µM and 23.6 µM	28.2 µM and 30.1 µM	–	34.9 µM and 29.8 µM	44.5 µM and 24.7 µM	35.1 µM and 33.3 µM	29.2 µM and 31.7 µM	30.4 µM and 27 µM	–	–	–	–	22.8 µM and 10.2 µM
COC(=O)c1csc(-c2nc(CCNC(=O)OC(C)(C)C)sc2Br)n1	> 100 µM	–	> 100 µM	> 100 µM	> 100 µM	> 100 µM	> 100 µM	> 100 µM	–	> 100 µM	> 100 µM	–	–	–	–	–	–
CC1C[C@]2(C)C(=O)N(c3ccccc3)C(=N)[C@@H]2N(C)c2ccccc21 (stereo partly specified)	> 100 µM	> 100 µM	> 100 µM	> 100 µM	> 100 µM	> 100 µM	> 100 µM	> 100 µM	> 100 µM	> 100 µM	> 100 µM	–	–	–	–	–	–
CC(=O)NC1=C(C)C(=O)c2c(nc3n2CCC3O)C1=N (stereo unspecified)	59.6 µM	27.7 µM	34.3 µM	–	11.1 µM	36.6 µM	–	22.3 µM	22 µM	26.4 µM	15.5 µM	15.3 µM	–	–	–	–	–
CCC(CC)n1c(C)nc2c1C(=O)c1ccccc1C2=O	–	–	> 100 µM	–	75.7 µM	–	–	> 100 µM	> 100 µM	> 100 µM	36.2 µM	> 100 µM	–	–	–	–	–
Cc1nnc2n1-c1ccccc1C(=S)N1CSCC21 (stereo unspecified)	> 100 µM	> 100 µM	> 100 µM	> 100 µM	> 100 µM	> 100 µM	> 100 µM	> 100 µM	> 100 µM	> 100 µM	> 100 µM	–	–	–	–	–	–
N/C(=N/n1c(=S)[nH]c2ccccc2c1=O)Nn1c(=S)[nH]c2ccccc2c1=O	> 100 µM	26.3 µM	> 100 µM	> 100 µM	> 100 µM	> 100 µM	> 100 µM	56.8 µM	> 100 µM	38.6 µM	> 100 µM	–	–	–	–	–	–
NC(=O)N1N=C2c3ccccc3SC[C@H]2[C@@H]1c1ccccc1	76.9 µM	–	–	–	35.1 µM	60.2 µM	–	> 100 µM	–	> 100 µM	–	–	–	–	–	–	–
COc1ccc(C(C#N)NNc2nc(C)cc(=O)[nH]2)cc1OC (stereo unspecified)	–	> 100 µM	> 100 µM	–	> 100 µM	> 100 µM	–	> 100 µM	> 100 µM	> 100 µM	> 100 µM	> 100 µM	–	–	–	–	–
CC1(C)Oc2ccc3c(=O)cc(-c4ccc(F)cc4)oc3c2C1C(=O)O (stereo unspecified)	> 100 µM	54.6 µM	–	> 100 µM	> 100 µM	> 100 µM	> 100 µM	> 100 µM	> 100 µM	–	> 100 µM	–	–	–	–	–	–
S=C1N=C(Cl)C2(NN1)c1ccccc1-c1ccccc12	> 10 µM	> 10 µM	> 10 µM	> 10 µM	–	–	–	> 10 µM	–	> 10 µM	> 10 µM	> 10 µM	–	–	–	–	–
COC(=O)C1C2C=CC(C2)N1[C@@H](C)c1ccccc1 (stereo partly specified)	> 100 µM	> 100 µM	> 100 µM	–	> 100 µM	> 100 µM	–	> 100 µM	> 100 µM	> 100 µM	> 100 µM	> 100 µM	–	–	–	–	–
COc1cccc(-c2cc(=O)c3c(C)ccnc3[nH]2)c1	> 77.1 µM	–	1.49 µM	> 100 µM	–	> 100 µM	> 100 µM	> 100 µM	> 100 µM	> 100 µM	> 100 µM	–	–	–	–	–	–
CN=S(=O)(c1ccccc1)c1ccccc1	> 100 µM	> 100 µM	> 100 µM	–	> 100 µM	> 100 µM	–	> 100 µM	> 100 µM	> 100 µM	> 100 µM	> 100 µM	–	–	–	–	–
CC(C)C1CC(O)O[C@@H]([C@@H](C)[C@H]2CC(=O)[C@@H]3[C@@H]4[C@@H](O)[C@H](O)[C@H]5[C@@H](O)[C@H](O)CC[C@]5(C)[C@H]4CC[C@]23C)C1 (stereo partly specified)	–	–	> 100 µM	–	> 100 µM	–	–	> 100 µM	> 100 µM	> 100 µM	> 100 µM	57.1 µM	–	–	–	–	–
